Experiment: xn = mol fraction of the nth substance listed
Conditions: 100 kPa, Liquid; for viscosity: Capillary tube (Ostwald / Ubbelohde) method

CCCCCCCCO [octan-1-ol] + CCO
Conditions | mass density, 283.15 K [kg/m3] | mass density, 293.15 K [kg/m3] | mass density, 298.15 K [kg/m3] | mass density, 303.15 K [kg/m3] | mass density, 313.15 K [kg/m3] | viscosity, 283.15 K [mPa·s] | viscosity, 293.15 K [mPa·s] | viscosity, 298.15 K [mPa·s] | viscosity, 303.15 K [mPa·s] | viscosity, 313.15 K [mPa·s]
x2 = 0 | 832.1 | 825.2 | 821.9 | 818.4 | 811.4 | 13.49 | 9.016 | 7.39 | 6.306 | 4.587
x2 = 0.1001 | 831.8 | 824.1 | 821.3 | 817.8 | 810.7 | 11.57 | 7.998 | 6.619 | 5.68 | 4.167
x2 = 0.2001 | 829.4 | 822.4 | 818.9 | 815.4 | 808.3 | 9.981 | 6.997 | 5.812 | 5.045 | 3.739
x2 = 0.3003 | 827.3 | 820.6 | 817 | 813.4 | 806.2 | 8.404 | 6.004 | 5.076 | 4.422 | 3.316
x2 = 0.3999 | 825.4 | 818.2 | 814.7 | 811.5 | 803.7 | 6.907 | 5.04 | 4.357 | 3.732 | 2.903
x2 = 0.5004 | 822.6 | 815.3 | 811.7 | 808.1 | 800.7 | 5.63 | 4.177 | 3.665 | 3.22 | 2.501
x2 = 0.6006 | 820.1 | 812.7 | 809 | 805.2 | 797.7 | 4.488 | 3.427 | 3.047 | 2.677 | 2.117
x2 = 0.7 | 816.8 | 809.3 | 805.4 | 801.7 | 793.9 | 3.543 | 2.711 | 2.445 | 2.178 | 1.771
x2 = 0.7999 | 811.7 | 803.9 | 800 | 796.1 | 788.1 | 2.714 | 2.146 | 1.958 | 1.712 | 1.4
x2 = 0.8998 | – | – | – | – | – | 2.003 | 1.593 | 1.474 | 1.328 | 1.112
x2 = 0.9001 | 805 | 796.8 | 792.7 | 788.6 | 780.4 | – | – | – | – | –

CCCCCO [pentan-1-ol] + CCO
Conditions | mass density, 283.15 K [kg/m3] | mass density, 293.15 K [kg/m3] | mass density, 298.15 K [kg/m3] | mass density, 303.15 K [kg/m3] | mass density, 313.15 K [kg/m3] | viscosity, 283.15 K [mPa·s] | viscosity, 293.15 K [mPa·s] | viscosity, 298.15 K [mPa·s] | viscosity, 303.15 K [mPa·s] | viscosity, 313.15 K [mPa·s]
x2 = 0 | 822.1 | 814.7 | 811.2 | 807.5 | 800 | 5.417 | 3.974 | 3.441 | 2.99 | 2.263
x2 = 0.1 | 820.6 | 813.2 | 810 | 805.8 | 798.3 | 4.879 | 3.595 | 3.154 | 2.741 | 2.1
x2 = 0.2 | 819.4 | 812 | 808.3 | 804.6 | 797 | 4.379 | 3.263 | 2.874 | 2.506 | 1.931
x2 = 0.2998 | 817.8 | 810.3 | 806.6 | 802.8 | 795.1 | 3.892 | 2.935 | 2.587 | 2.27 | 1.771
x2 = 0.3999 | 815.4 | 807.8 | 804.2 | 800.2 | 792.4 | 3.404 | 2.619 | 2.324 | 2.05 | 1.61
x2 = 0.4997 | 813.3 | 805.6 | 801.8 | 797.9 | 790 | 2.966 | 2.328 | 2.07 | 1.828 | 1.452
x2 = 0.6 | 811 | 803.2 | 799.6 | 795.4 | 787.4 | 2.564 | 2.04 | 1.833 | 1.628 | 1.312
x2 = 0.7 | 808.4 | 800.5 | 796.4 | 792.5 | 784.3 | 2.234 | 1.796 | 1.631 | 1.453 | 1.179
x2 = 0.8 | 805.3 | 797.3 | 793.7 | 789.1 | 780.8 | 1.938 | 1.583 | 1.435 | 1.285 | 1.062
x2 = 0.8999 | 802 | 793.7 | 790.4 | 785.3 | 776.8 | 1.693 | 1.381 | 1.256 | 1.141 | 0.956

Source: the NIST ThermoML archive (doi:10.1021/je400630f)
